Values quoted from earlier work in patent publication US5028528A, “Analytical element for theophylline determination using buffer in a subbing zone” (Eastman Kodak Company, priority 1988, dated 1991).

Settings: in a patient

In the case of `Cn1c(=O)c2[nH]cnc2n(C)c1=O` [Theophylline], the “therapeutic range of use” value is given as 1 to 2 mg/dL.
